ChEMBL document CHEMBL1150556, “Tetraazaacenaphthene, tetraazaphenalene and 1,3,4-thiadiazole derivatives as potential leishmanicides” (1997)

What was measured:
Leishmania donovani [1] = test: In vitro leishmanicidal activity determined by measuring 3H thymidine incorporation in promastigotes of Leishmania donovani; type: functional; design: concentration or dose not given beside the values
[2] = In vivo leishmanicidal activity determined against amastigotes of Leishmania donovani in golden hamsters; type: functional, Mesocricetus auratus; design: concentration or dose not given beside the values
Cricetulus griseus = test: TThe in vivo leishmanicidal activity of compound was determined against amastigotes of Leishmania donovani in golden hamsters (Mesocricetus auratus) at dose of 50 mg/kg for 5 days; Toxic; type: functional, organism-based; design: dose 50 mg/kg
Leishmania donovani [3] = test: In vitro leishmanicidal activity of compound was determined by measuring 3H thymidine incorporation in promastigotes of Leishmania donovani at concentration of 100 uM; type: functional
Leishmania donovani [4] = test: In vivo leishmanicidal activity determined against amastigotes of Leishmania donovani in golden hamsters; conditions: Mesocricetus auratus; dose or concentration not given here

For `CCO/C(O)=C(\C1=NCCN1)c1nn2cc(-c3ccc(Br)cc3)nc2s1`, the Inhibition (Leishmania donovani [1]) was 31% and the Inhibition [2] was 0%.
With `N=c1c2c(=O)n(-c3ccccc3)c(=S)n3c2n(c(=S)n1-c1ccccc1)CC3` the Inhibition (Leishmania donovani [1]) was 99.3% and the Inhibition [2] was 78.6%.
Compound `CCO/C(O)=C(\C1=NCCCN1)c1nnc(N)s1` has an Inhibition (Leishmania donovani [1]) of 73% and an Inhibition [2] of 44.7%.
Compound `CCO/C(O)=C(\C1=NCCN1)c1nn2cc(-c3ccc(Cl)cc3)nc2s1` has an Inhibition (Leishmania donovani [1]) of 40% and an Inhibition [2] of 0%.
For `O=c1c2c(=O)n(-c3ccccc3)c(=S)n3c2n(c(=S)n1-c1ccccc1)CC3`, the Inhibition (Leishmania donovani [1]) was 85% and the Inhibition [2] was 81.3%.
`CCOC(=O)C(=C1SCCS1)c1nnc(N)s1` showed an Inhibition (Leishmania donovani [1]) of 0%.
With `CCn1c(=O)c2c(=O)n(CC)c(=O)n3c2n(c1=O)CCC3` the Inhibition (Leishmania donovani [1]) was 58% and the Inhibition [2] was 0%.
For `Cc1ccccc1-n1c(=O)c2c(=O)n(-c3ccccc3C)c(=O)n3c2n(c1=O)CC3`, the Inhibition (Leishmania donovani [1]) was 93% and the Inhibition [2] was 0%.
`Cc1ccccc1-n1c(=N)c2c(=O)n(-c3ccccc3C)c(=O)n3c2n(c1=O)CC3` showed an Inhibition (Leishmania donovani [1]) of 7%.
For `N=c1c2c(=O)n(-c3ccc(F)cc3)c(=S)n3c2n(c(=S)n1-c1ccc(F)cc1)CC3`, the Inhibition (Leishmania donovani [1]) was 99.3% and the inhibition (Cricetulus griseus) was “Toxic”.
In the case of `N=C(N)c1ccc(OCCCCCOc2ccc(C(=N)N)cc2)cc1` [PENTAMIDINE], the inhibition at 100 µM (Leishmania donovani [3]) is reported as 100%.
Work on `CCn1c(=N)c2c(=O)n(CC)c(=S)n3c2n(c1=S)CCC3` yielded an Inhibition (Leishmania donovani [1]) of 99.2% and an Inhibition [2] of 50.7%.
Work on `CCO/C(O)=C(\C1=NCCN1)c1nnc(N)s1` yielded an Inhibition (Leishmania donovani [1]) of 0%.
With `O=c1c2c(=O)n(-c3ccc(F)cc3)c(=S)n3c2n(c(=S)n1-c1ccc(F)cc1)CC3` the Inhibition (Leishmania donovani [1]) was 50% and the Inhibition [2] was 0%.
In the case of `N#CC(=C1SCCS1)c1nnc(N)s1`, the Inhibition (Leishmania donovani [1]) is reported as 18%.
Compound `CCn1c(=N)c2c(=O)n(CC)c(=S)n3c2n(c1=S)CC3` has an Inhibition (Leishmania donovani [1]) of 20% and an Inhibition [2] of 71.2%.
`CCOC(=O)C(=C1SCCCS1)c1nnc(N)s1` gave an Inhibition (Leishmania donovani [1]) of 0%.
Work on Sodium stibogluconate yielded an inhibition (Leishmania donovani [4]) of 100%.
Compound `CCn1c(=O)c2c(=O)n(CC)c(=S)n3c2n(c1=S)CC3` has an Inhibition (Leishmania donovani [1]) of 76%.
